The text below walks through data of patent publication US12433866B2, “Lasofoxifene treatment of aromatase-resistant ER+ cancer” (Sermonix Pharmaceuticals, Inc., priority 2021, dated 2025).

In assay [1] the test system is MCF7 LTLT cells. Nature of the assay: Ex vivo IVIS radiance of excised liver, lung, brain and bone at sacrifice (metastasis), MCF7 LTLT MIND model. The following applies: ex vivo radiance in bones at sacrifice. Also noted: species or system NSG mice. As for the experimental part:
(§1) After cell injection, mice were separated into 2 equal groups; one group received 10 μg/day of letrozole in 15% PEG400 in PBS via subcutaneous injection, “LTLT-Let”; the other group wasn't administered letrozole (“LTLT”). Two to three weeks after cell injections, mice in each group were randomized and treated 5 days/week with lasofoxifene (10 mg/kg, in 100 μl of PBS containing 15% PEG400), palbociclib (70 mg/kg, Med Chem Express #HY-50567, in 50 mM sodium lactate buffer pH4), or vehicle. Lasofoxifene and vehicle were administered subcutaneously. Palbociclib was administered via oral gavage 5 times/week. Fulvestrant (Med Chem Express #HY-13636) (“IC”) (5 mg/mouse) was administered once per week via subcutaneous injection in 100 μl of mineral oil. Mice were also treated with combinations of lasofoxifene+palbociclib, fulvestrant+palbociclib, lasofoxifene+letrozole and palbociclib or fulvestrant+palbociclib, or letrozole.
After 90-93 days of treatment, mice were sacrificed, and mammary gland tumors were excised and weighed. Liver, bone brain and lungs were removed and imaged ex vivo in the IVIS 200, following an in vivo injection of luciferin 8 min prior to sacrifice, to measure luciferase activity.
At sacrifice, livers, lungs, bones and brains were excised and imaged ex vivo on the IVIS. […] Data for Let^+ group were evaluated but are not shown.

Assay [2] concerns MCF7 LTLT primary tumors. Briefly: Percent tumor area vs total gland area by H&E of mammary gland sections, MCF7 LTLT MIND model. The assay is classed as in vivo, NSG mice. Particulars: Let− cohort. The procedure: as §1
Harvested tissues were fixed in formalin for IHC and H&E staining. Tissue histology was performed by the Human Tissue Resource Center (HRTC) at the University of Chicago. […]
(§2) H&E and IHC slides were scanned on a Nikon eclipse Ti2 microscope with a 10× objective for high resolution images. Ki67 score was determined using standardized manual counting.
H&E slides were scanned on a Nikon microscope and analyzed with the NSI element software.

In assay [3] the test system is MCF7 LTLT primary tumors. Briefly: Ki67 proliferation index by immunohistochemistry on fixed mammary glands, MCF7 LTLT MIND model. The following applies: for Effect on Ki67 percentage / proliferation index (in words): MCF7 LTLT model, comparisons as stated; for % Ki67 % mean: MCF7 LTLT primary tumors, IHC at sacrifice after 90-93 days of treatment, manual counting, Let− cohort, and Let+ cohort where label includes letrozole; for Ki67 percentage (mean +/− standard deviation): Let+ cohort (all groups also received letrozole 10 μg/day). The assay is classed as in vivo, NSG mice. The procedure:
as §1
Harvested tissues were fixed in formalin for IHC and H&E staining. Tissue histology was performed by the Human Tissue Resource Center (HRTC) at the University of Chicago. Primary Glands excised from the mice were sectioned and stained with antibodies to estrogen receptor alpha (ThermoScientific, RM-9101-S0, clone SP1), progesterone receptor (ThermoScientific, RM-9102-S0, clone SP2), glucocorticoid receptor (Cell Signaling, Cat #3660), androgen receptor (Abcam, ab133273, clone EPR1535), Ki67 (ThermoScientific, Cat #RM-9106-s, Clone: SP6) and human-specific mouse monoclonal antibody to mitochondria (Abcam, ab92824, clone 112-1).
as §2
Immunohistochemistry with anti-Ki67 antibody was performed on fixed mammary glands to determine the proliferation index for MCF7 LTLT primary tumors.

The subject of assay [4] is MCF7 LTLT primary tumors. Nature of the assay: Mammary gland weight at sacrifice, MCF7 LTLT MIND model. The assay is classed as in vivo, NSG mice. The following applies: Let− cohort. As for the experimental part:
Mouse studies were performed in compliance with an approved Institutional Animal Care and Use Committee protocol. NSG (NOD.Cg-Prkdcscid Il2rgtmlWjl/SzJ) mice were purchased from The Jackson Laboratories. Prior to injection, mice were anesthetized via inhalation with 2-3% isoflurane in oxygen. Injections of single-cell suspensions of 250,000 MCF7 cells in the mammary ducts of inguinal glands 4 and 9 were performed as described (Behbod, F., et al. Breast Cancer Res. 11, R66 (2009); Sflomos, G., et al. Cancer Cell 29, 407-422 (2016); Laine, M., et al. Breast Cancer Res. 23, 54 (2021)). Tumor growth in situ was followed via imaging in a Xenogen IVIS 200 instrument in the Integrated Small Animal Imaging Research Resource at the University of Chicago. For IVIS imaging, mice were injected with 100 μl of a 0.1 M luciferin solution in PBS (Perkin Elmer XenoLight #122799).
After cell injection, mice were separated into 2 equal groups; one group received 10 μg/day of letrozole in 15% PEG400 in PBS via subcutaneous injection, “LTLT-Let”; the other group wasn't administered letrozole (“LTLT”). Two to three weeks after cell injections, mice in each group were randomized and treated 5 days/week with lasofoxifene (10 mg/kg, in 100 μl of PBS containing 15% PEG400), palbociclib (70 mg/kg, Med Chem Express #HY-50567, in 50 mM sodium lactate buffer pH4), or vehicle. […]

Assay [5] has as its system MCF7 LTLT (AI-resistant, ER+, cells lacking ESR1 gain-of-function mutations) tumors. Nature of the assay: MIND model: luciferase-GFP MCF7 LTLT cells in mammary ducts of NSG mice, live luminescence imaging of primary tumors (total photon flux). Format: in vivo. Particulars: for Inhibition of primary tumor growth (conclusion in words): MCF7 LTLT tumors, AI-resistant, no ESR1 gain-of-function mutations. As for the experimental part: Luciferase-GFP tagged LTLT cells were injected into the mammary ducts of NSG mice (MIND model) and tumor progression was monitored by live luminescence imaging of primary tumors, as well as ex vivo imaging and histochemical analysis of metastatic sites at study endpoint. Primary tumor area was also measured at study endpoint.
Cells were grown in RPMI containing 10% FBS and 1 μM letrozole.
Mouse studies were performed in compliance with an approved Institutional Animal Care and Use Committee protocol. NSG (NOD.Cg-Prkdcscid Il2rgtmlWjl/SzJ) mice were purchased from The Jackson Laboratories. Prior to injection, mice were anesthetized via inhalation with 2-3% isoflurane in oxygen. […] Tumor growth in situ was followed via imaging in a Xenogen IVIS 200 instrument in the Integrated Small Animal Imaging Research Resource at the University of Chicago.
Lasofoxifene and vehicle were administered subcutaneously. Palbociclib was administered via oral gavage 5 times/week. […] Mice were also treated with combinations of lasofoxifene+palbociclib, fulvestrant+palbociclib, lasofoxifene+letrozole and palbociclib or fulvestrant+palbociclib, or letrozole.
MCF7 LTLT cells labeled with GFP luciferase were injected into the mammary ducts of NSG mice to establish tumors that represent an AI resistant, non-ESR1-mutated, breast cancer model. Treatment with lasofoxifene, palbociclib and combinations of lasofoxifene and palbociclib were carried out in the presence (Let^+) or absence (Let^−) of letrozole, to account for the potential loss of letrozole resistance (“reversion”) in the Let^− cohort. Mice were imaged every other week in a Xenogen IVIS scanner to estimate tumor growth. At the end of the study, mammary glands were removed and weighed.

The test system of assay [6] is MCF-7 xenograft with activating ERα mutations. Particulars: gain-of-function activating mutations in the ERα receptor; previous studies; cited from earlier work.
The conditions of assay [7]: post-menopausal women with no history of breast cancer, wild estrogen receptors; cited from earlier work.

Regarding `C[C@]12CC[C@@H]3c4ccc(O)cc4C[C@@H](CCCCCCCCC[S+]([O-])CCCC(F)(F)C(F)(F)F)[C@H]3[C@@H]1CC[C@@H]2O` (stereo partly shown) [fulvestrant (ICI), fulvestrant], the “Bone readings with a signal above threshold” value in assay [1] stood at 2 readings. Also, the “% tumor area of total gland area, H&E (in words)” value in assay [2] is reported as “did not reach statistical significance”. The “Effect on Ki67 percentage / proliferation index (in words)” value in assay [3] (Let+ cohort) is on record as “do not reduce Ki67% levels”. Further, in assay [3], the “% Ki67 % mean” value came out at 56.8%. In assay [4], the “Mammary gland weight at end of study (in words)” value is listed as “inhibits mammary gland weight”. Moreover, in assay [5] (Let+ cohort, data not shown), the “Tumor photon flux in the presence of letrozole (in words)” value was “appeared to increase tumor photon flux”. Moreover, the “Total photon flux over time (in words)” value in assay [5] (imaged every other week, Let− cohorts shown) is “higher than all other treatments”.
On to `Oc1ccc2c(c1)CC[C@H](c1ccccc1)[C@@H]2c1ccc(OCCN2CCCC2)cc1` [lasofoxifene], for which the “Bone metastasis / bone radiance versus vehicle (in words)” value in assay [1] is “appears to inhibit metastasis to the bone”. For the same compound, in assay [2], the “% tumor area of total gland area, H&E (in words)” value was “significantly lower”. The “Inhibition of tumor growth and metastasis compared with fulvestrant (in words)” value in assay [6] is “more effective than fulvestrant at inhibiting tumor growth and metastasis to the liver, lung, bone and brain”. Besides, the “Risk of ER+ breast cancer (in words)” value in assay [7] is “reduce the risk of ER^+ breast cancer”. Moreover, the “Reduction of the Ki67 percentage” value in assay [3] (Let+ cohort, versus letrozole control) is given as 6.5%. Also, in assay [3], the “% Ki67 % mean” value stood at 46.0%. For the same compound, in assay [4], the “Mammary gland weight at end of study (in words)” value was “inhibits increases in primary tumor weight”. Moreover, the “Inhibition of primary tumor growth (conclusion in words)” value was “significantly inhibits primary tumor growth” in assay [5] and “significantly more effective than fulvestrant” in assay [5] (listed as Lasofoxifene). Moreover, in assay [5] (day 104, regardless of the presence of letrozole), the “Photon flux at day 104 (in words)” value is “significantly lower than vehicle and fulvestrant (ICI) treatment”.
On to `N#Cc1ccc(C(c2ccc(C#N)cc2)n2cncn2)cc1` [letrozole], for which, in assay [3], the “Ki67 percentage (mean +/− standard deviation)” value is listed as 39.5+/−7.7% and the “% Ki67 % mean” value is on record as 39.5%. Also, in assay [3] (Let+ cohort), the “Effect on Ki67 percentage / proliferation index (in words)” value is on record as “significantly lowers the Ki67 percentage”.
In the case of `CC(=O)c1c(C)c2cnc(Nc3ccc(N4CCNCC4)cn3)nc2n(C2CCCC2)c1=O` [palbociclib], in assay [3], the “Ki67 percentage (mean +/− standard deviation)” value was 45.3+/−19.0% and the “% Ki67 % mean” value amounted to 51.7%.
